Experimental findings from ChEMBL document CHEMBL6092145, “Recent advances in the design of small molecular drugs with acrylamides covalent warheads” (Bioorg Med Chem, 2024) are described below.

For data set [1], the target named is Tyrosine-protein kinase Lyn (Homo sapiens, UniProt P07948).
Description: Inhibition of LYN (unknown origin)
Data set [2] concerns the target Tyrosine-protein kinase Lck (Homo sapiens, UniProt P06239).
Description: Inhibition of LCK (unknown origin) using TK as substrate incubated for 30 mins by HTRF assay
The test system of data set [3] is NCI-H358. Put plainly: cells. Type of data set: functional, cell-based. The conditions noted are these: Homo sapiens.
Description: Antiproliferative activity against human NCI-H358 cells assessed as reduction in cell viability
In data set [4] the target is Tyrosine-protein kinase Blk (Homo sapiens, UniProt P51451).
Tyrosine-protein kinase Blk, sequence (P51451 whole entry): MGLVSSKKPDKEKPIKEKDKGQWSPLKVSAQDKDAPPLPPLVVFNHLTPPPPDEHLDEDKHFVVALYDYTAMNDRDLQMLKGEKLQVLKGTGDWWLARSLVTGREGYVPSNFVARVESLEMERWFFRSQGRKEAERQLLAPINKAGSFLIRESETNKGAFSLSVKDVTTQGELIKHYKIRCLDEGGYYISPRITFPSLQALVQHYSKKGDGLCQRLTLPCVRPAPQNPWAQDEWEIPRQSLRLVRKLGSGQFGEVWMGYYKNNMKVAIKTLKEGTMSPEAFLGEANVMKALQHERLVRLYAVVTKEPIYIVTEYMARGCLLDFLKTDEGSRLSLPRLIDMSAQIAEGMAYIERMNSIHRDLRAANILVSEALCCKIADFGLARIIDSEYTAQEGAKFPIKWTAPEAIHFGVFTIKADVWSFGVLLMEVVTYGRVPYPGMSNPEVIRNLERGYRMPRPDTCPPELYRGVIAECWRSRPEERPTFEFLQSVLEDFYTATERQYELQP
Description: Inhibition of BLK (unknown origin)
In data set [5] the target is Tyrosine-protein kinase BTK (Homo sapiens, UniProt Q06187).
Tyrosine-protein kinase BTK, sequence (Q06187 whole entry): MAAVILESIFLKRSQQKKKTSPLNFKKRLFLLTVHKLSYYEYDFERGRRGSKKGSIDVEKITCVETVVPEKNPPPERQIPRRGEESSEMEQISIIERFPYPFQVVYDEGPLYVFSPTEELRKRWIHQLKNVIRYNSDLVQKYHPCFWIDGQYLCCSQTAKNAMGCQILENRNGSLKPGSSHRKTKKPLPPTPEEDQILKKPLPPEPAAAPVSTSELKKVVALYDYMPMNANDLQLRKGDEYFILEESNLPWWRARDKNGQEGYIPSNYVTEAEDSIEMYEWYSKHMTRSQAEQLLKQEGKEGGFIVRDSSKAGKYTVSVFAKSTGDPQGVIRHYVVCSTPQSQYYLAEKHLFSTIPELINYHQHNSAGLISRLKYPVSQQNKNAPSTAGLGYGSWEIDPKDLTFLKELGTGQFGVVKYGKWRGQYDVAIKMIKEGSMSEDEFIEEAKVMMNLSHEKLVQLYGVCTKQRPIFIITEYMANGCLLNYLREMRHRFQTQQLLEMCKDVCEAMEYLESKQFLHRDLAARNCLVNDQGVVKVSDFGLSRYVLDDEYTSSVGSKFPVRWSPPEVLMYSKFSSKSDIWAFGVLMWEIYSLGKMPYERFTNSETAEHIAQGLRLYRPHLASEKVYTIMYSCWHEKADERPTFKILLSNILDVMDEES
Description: Inhibition of BTK (unknown origin)
Data set [6] deals with NCI-H358. Put plainly: cells. Type of data set: functional, cell-based. To be noted: Homo sapiens, NCI-H358, 72 h.
Description: Antiproliferative activity against human NCI-H358 cells assessed as reduction in cell growth incubated for 72 hrs by cell-titer glo assay
The nature of data set [7]: clinical. The conditions noted are these: human, in vivo, po.
Description: Oral bioavailability in human
Data set [8] addresses Epidermal growth factor receptor (Homo sapiens, UniProt P00533).

Epidermal growth factor receptor, sequence (P00533 whole entry): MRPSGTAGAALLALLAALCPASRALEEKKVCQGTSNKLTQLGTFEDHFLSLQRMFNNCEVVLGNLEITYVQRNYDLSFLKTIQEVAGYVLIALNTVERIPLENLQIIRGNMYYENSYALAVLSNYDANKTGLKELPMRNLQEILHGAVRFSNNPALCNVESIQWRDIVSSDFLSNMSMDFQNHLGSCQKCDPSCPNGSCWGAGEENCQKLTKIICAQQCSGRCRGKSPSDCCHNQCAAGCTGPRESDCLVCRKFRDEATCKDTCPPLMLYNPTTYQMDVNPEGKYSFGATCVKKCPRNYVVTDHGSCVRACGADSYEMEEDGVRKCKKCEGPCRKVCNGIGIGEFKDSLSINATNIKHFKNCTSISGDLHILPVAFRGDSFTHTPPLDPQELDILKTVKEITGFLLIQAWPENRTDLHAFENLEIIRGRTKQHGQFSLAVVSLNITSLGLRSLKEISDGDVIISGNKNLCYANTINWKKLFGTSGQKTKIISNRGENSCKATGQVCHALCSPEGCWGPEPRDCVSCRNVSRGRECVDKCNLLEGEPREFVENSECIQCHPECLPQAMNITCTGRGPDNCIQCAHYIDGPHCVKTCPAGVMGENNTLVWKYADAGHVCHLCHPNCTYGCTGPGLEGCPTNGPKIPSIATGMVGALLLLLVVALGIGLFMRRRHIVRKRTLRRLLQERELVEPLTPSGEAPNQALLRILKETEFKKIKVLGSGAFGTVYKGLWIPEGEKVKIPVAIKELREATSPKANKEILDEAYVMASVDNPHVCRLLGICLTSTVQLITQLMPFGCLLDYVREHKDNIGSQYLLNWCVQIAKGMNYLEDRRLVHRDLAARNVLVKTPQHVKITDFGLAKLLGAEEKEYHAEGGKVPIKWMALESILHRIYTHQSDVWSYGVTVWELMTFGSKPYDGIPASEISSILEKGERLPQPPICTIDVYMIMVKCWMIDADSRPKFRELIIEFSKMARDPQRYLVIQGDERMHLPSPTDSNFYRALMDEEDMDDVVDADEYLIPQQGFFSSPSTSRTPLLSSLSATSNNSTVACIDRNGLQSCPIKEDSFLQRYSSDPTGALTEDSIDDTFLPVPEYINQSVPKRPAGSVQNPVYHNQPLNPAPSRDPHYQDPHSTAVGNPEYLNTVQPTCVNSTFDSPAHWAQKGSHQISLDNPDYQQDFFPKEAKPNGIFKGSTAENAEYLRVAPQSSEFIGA
Tyrosine-protein kinase Lck, sequence (P06239 whole entry): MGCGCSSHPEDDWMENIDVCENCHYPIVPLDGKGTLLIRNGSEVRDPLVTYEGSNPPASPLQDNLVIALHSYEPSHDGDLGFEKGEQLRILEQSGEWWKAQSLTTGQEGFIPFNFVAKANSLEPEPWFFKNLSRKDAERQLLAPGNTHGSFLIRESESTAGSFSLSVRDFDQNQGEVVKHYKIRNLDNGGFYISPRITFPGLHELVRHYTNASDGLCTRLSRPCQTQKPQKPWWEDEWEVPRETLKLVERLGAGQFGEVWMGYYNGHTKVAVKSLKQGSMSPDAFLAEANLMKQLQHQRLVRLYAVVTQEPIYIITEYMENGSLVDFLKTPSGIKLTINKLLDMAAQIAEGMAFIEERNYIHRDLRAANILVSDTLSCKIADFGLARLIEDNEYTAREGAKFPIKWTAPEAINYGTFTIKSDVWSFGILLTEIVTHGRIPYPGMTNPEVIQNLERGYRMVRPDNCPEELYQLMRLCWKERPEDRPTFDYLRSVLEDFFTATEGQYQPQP
Tyrosine-protein kinase Lyn, sequence (P07948 whole entry): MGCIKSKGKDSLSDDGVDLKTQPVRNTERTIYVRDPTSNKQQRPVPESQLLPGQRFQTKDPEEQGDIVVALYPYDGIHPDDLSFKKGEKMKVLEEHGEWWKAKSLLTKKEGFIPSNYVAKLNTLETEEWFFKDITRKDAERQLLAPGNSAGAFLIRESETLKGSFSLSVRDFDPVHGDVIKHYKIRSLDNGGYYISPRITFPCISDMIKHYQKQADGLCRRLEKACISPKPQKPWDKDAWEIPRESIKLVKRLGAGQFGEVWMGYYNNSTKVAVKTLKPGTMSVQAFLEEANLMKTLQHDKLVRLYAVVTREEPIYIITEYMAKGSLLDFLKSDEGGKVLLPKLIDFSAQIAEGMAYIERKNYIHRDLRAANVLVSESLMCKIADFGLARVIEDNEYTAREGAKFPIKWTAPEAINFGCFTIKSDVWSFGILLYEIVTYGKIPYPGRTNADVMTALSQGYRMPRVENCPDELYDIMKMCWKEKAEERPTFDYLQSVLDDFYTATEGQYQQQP

The IC50 is the point on the concentration scale where inhibition reaches its midpoint. A higher IC50 goes with weaker potency in that assay. Regarding `Nc1ncnc2c1c(-c1ccc(Oc3ccccc3)cc1)nn2C1CCCC1`, the IC50 came out at 2.5 nM in data set [1] and 4.6 nM in data set [2]. `C=CC(=O)N1CCN(c2ncnc3c(F)c(-c4c(O)cccc4F)c(Cl)cc23)CC1` had an IC50 in data set [3] of 939 nM. That is a sub-micromolar value.

On to `C=CC(=O)NC1Cn2c(c(-c3ccc(Oc4ccccc4)cc3)c3c(N)ncnc32)C1=C` (centres undefined), for which the 50% inhibitory concentration (IC50) in data set [4] is 0.5 nM; in data set [5], 0.4 nM. `C=CC(=O)N1CCN(C(=O)CNc2cc(Cl)c(Cl)cc2OC)CC1` returned an IC50 in data set [4] greater than 1000 nM. On to `C=CC(=O)N1CC(N2CCN(C(=O)CNc3cc(C4(C)CC4)c(Cl)cc3O)CC2)C1`, for which, in data set [3], inhibition was half-maximal at 250 nM (IC50). Broadly, the bioavailability is the share of a dose that reaches the circulation, judged against a reference dose that is usually intravenous. High values mean much systemic uptake, low ones little systemic uptake. As for `C=CC(=O)N1CCN(c2nc(OC[C@@H]3CCCN3C)nc3c2CCN(c2cccc4cccc(Cl)c24)C3)C[C@@H]1CC#N`, the half-maximal inhibitory concentration (IC50) in data set [6] was determined as 1 nM. In data set [7], this compound came in with a bioavailability of 16.9%. Take `C=C(F)C(=O)N1CCN(c2nc(OC[C@@H]3CCCN3CCCOCCC(=O)N[C@H](C(=O)N3C[C@H](O)C[C@H]3C(=O)NCc3ccc(-c4scnc4C)cc3)C(C)(C)C)nc3c2CCN(c2cccc4cccc(Cl)c24)C3)C[C@@H]1CC#N`: in data set [6], the IC50 amounted to 520 nM. Compound `CN(C)CCSSCCNC(=O)C1CCN(C(=O)CSc2ccc(Cl)cc2)CC1` showed an IC50 in data set [4] greater than 10000 nM. Still for that read-out and setting: the figure for `CN(C)CCSSCCC(=O)Nc1cc(-c2cccs2)[nH]n1` is greater than 10000 nM. In turn, `CN(C)CCSSCCC(=O)NC1CCN(C(=O)COc2ccc(Cl)cc2Cl)CC1` came in with an IC50 in data set [8] greater than 10000 nM.

Turning to `C=CC(=O)N1CCN(c2nc(=O)n(-c3c(C)ccnc3C(C)C)c3nc(-c4c(O)cccc4F)c(F)cc23)[C@@H](C)C1` [SOTORASIB], the IC50 in data set [3] was 68 nM.
